Several values for one entry are separate records, joined by “and”; a condition that tells them apart may be missing. Equal entries are not always repeated. Entries after “also recorded” stand apart in the source; their conditions may differ. Structures can show the parent of a compound that is named as a salt. Where two headings read alike, the source gives them in different places.
Columns and labels:
MCF-7 cells = test: MTT cytotoxicity assay, sensitive MCF-7 cells; type: cell-based, human; conditions: for IC50: Homo sapiens, MCF7, MTT, 72 h, read-out: ID50 MCF-7
KB-3-1 cells = test: MTT cytotoxicity assay, sensitive KB-3-1 cells; conditions: Homo sapiens, KB 3-1, read-out: ID50 KB-3-1
DNA [1] = conditions: literature; cited from earlier work
KB-V-1 cells [2] = test system: KB-V-1 cells
[3] = Young et al., 1985; cited from earlier work
KB-V-1 cells [4] = test: cells; conditions: Homo sapiens, KB-V1, read-out: ID50 KB-V-1
MCF-7/VP-16 cells [5] = conditions: for RI (resistance index) MCF-7/VP16 / MCF-7: human, mcf-7/vp-16 / mcf-7 cells, 4320 min
MCF-7/VP-16 cells [6] = test: cells; conditions: Homo sapiens, MCF7, 72 h, read-out: ID50 MCF-7/VP16
herring sperm DNA [7] = type: binding
herring sperm DNA [8] = test: UV melting studies of DNA with drug; binding constant from Tm shift; conditions: for Kd: BPE buffer
DNA [9] = test: Viscosity studies (binding mode, relative viscosity of DNA); conditions: for binding mode from viscosity: in words, slope compared with daunorubicin; for slope of cubed root of the relative viscosity vs bound drug per DNA base pair: linear least squares fits, FIG. 20
Source text: FIG. 20. Viscosity studies of WP631-DNA interaction. The cubed root of the relative viscosity (.eta./.eta.0) is shown as a function of the ratio of bound drug per DNA base pair: solid circles, ethidium bromide; open diamonds, daunorubicin; solid diamonds, WP63 1.
The bisanthracyclines may be tested as effective intercalating agents using viscosity assays as described by Suh and Chaires (1995). Such assays are well known to those of skill in the art. In theory, for monointercalation,plots of the cubed root of the relative viscosity ((.eta./.eta.0)^1/3) versus the binding ratio (bound drug/DNA bp) ought to have a slope of 1.0. For bisintercalators, the slope is expected to be twice that observed for monointercalators, an expectation that has been verified for a variety of bisintercalating compounds (Wakelin, 1986). Thus in order to test the effectiveness of a candidate bisintercalator the viscosity of a DNA solution is measured according to assays well known to those of skill in the art (Suh and Chaires, 1995) and compared to the viscosity of a known intercalator such as daunorubicin. If the candidate substance is higher than that of the control monointercalator then the candidate substance is likely to be an effective bisintercalator.
Viscosity Studies. Relative viscosity studies were conducted exactly as described previously (Suh and Chaires, 1995). Data were cast into a plot of (.eta./.eta.0)^1/3 versus ratio of bound drug per DNA base pair, in accord with the theory of Cohen and Eisenberg (1969). Ethidium bromide and daunorubicin were run as controls for these experiments.
WP631 Bisintercalates into DNA. In the absence of high-resolution structural data, hydrodynamic studies, especially viscosity, provide the most reliable means of inferring the binding mode of agents that interact with DNA (Suh and Chaires, 1995). […] The theory of Cohen and Eisenberg (1969) predicts that, for monointercalation,plots of the cubed root of the relative viscosity ((.eta./.eta.0)^1/3) versus the binding ratio (bound drug/DNA bp) ought to have a slope of 1.0.
For bisintercalators, the slope is expected to be twice that observed for monointercalators, an expectation that has been verified for a variety of bisintercalating compounds (Wakelin, 1986). […] The model was constructed using Hyper-Chem software (v. 4.5, Hypercube, Inc.) by using the coordinates of the high-resolution structure reported by Wang et al. (1987) for a 2:1 daunorubicin-DNA complex. The sequence of the hexanucleotide in that study was d(G.CTAG.C)3, where the two equivalent intercalation sites are indicated.

topoisomerase II = conditions: Hsiang et al., 1989; cited from earlier work
herring sperm DNA [10] = conditions: cited from earlier work

SMILES | IC50 (MCF-7 cells) [µM] | IC50 (KB-3-1 cells) [µM] | preferred DNA binding sites (DNA [1]) | cytotoxicity in MDR KB-V1 cells, in words (KB-V-1 cells [2]) | IC50 (KB-V-1 cells [4]) [µM] | RI (resistance index) MCF-7/VP16 / MCF-7 (MCF-7/VP-16 cells [5]) | IC50 (MCF-7/VP-16 cells [6]) [µM] | potency in MCF-7 cells compared with DOX, in words (MCF-7 cells) | slope of cubed root of the relative viscosity vs bound drug per DNA base pair (DNA [9]) | binding mode from viscosity (DNA [9]) | further results
COc1cccc2c1C(=O)c1c(O)c3c(c(O)c1C2=O)C[C@@](O)(C(=O)CO)C[C@@H]3O[C@H]1C[C@H](N)[C@H](O)[C@H](C)O1 [DOX, doxorubicin] | 0.9 ± 0.47 | 3.7 ± 1.3 | binds preferentially to CGA or CGT | inactive | 299 | 17 | 14.9 ± 0.89 | – | – | – | RI (resistance index) KB-V-1 / KB-3-1 (KB-V-1 cells [2]; human, kb-v-1 / kb-3-1 cells): 80.8; adverse systemic effects [3]: acute myelosuppression, cumulative cardiotoxicity, and gastrointestinal toxicity; DOX resistance index relative to that of WP631 (MCF-7/VP-16 cells [5]): 34 fold
COc1cccc2c1C(=O)c1c(O)c3c(c(O)c1C2=O)C[C@@](O)(C(C)=O)C[C@@H]3O[C@H]1C[C@H](O)[C@H](NCc2ccc(CN[C@@H]3[C@H](C)O[C@@H](O[C@H]4C[C@](O)(C(C)=O)Cc5c(O)c6c(c(O)c54)C(=O)c4c(OC)cccc4C6=O)C[C@@H]3O)cc2)[C@H](C)O1 [WP652, α,α'-Bis-4'-N-(4'-amino-3'-deamino-4'-deoxy-3'-hydroxydaunorubicin)-p-xylene hydrochloride] | 3.9 ± 3.3 | 4.8 ± 0.5 | – | unusually active against the MDR cells | 7.1 ± 1.2 | – | – | less potent than DOX | – | – | –
COc1cccc2c1C(=O)c1c(O)c3c(c(O)c1C2=O)C[C@@](O)(C(C)=O)C[C@@H]3O[C@H]1C[C@H](NCc2ccc(CN[C@H]3C[C@H](O[C@H]4C[C@](O)(C(C)=O)Cc5c(O)c6c(c(O)c54)C(=O)c4c(OC)cccc4C6=O)O[C@@H](C)[C@H]3O)cc2)[C@H](O)[C@H](C)O1 [WP631, α,α'-Bis-[3'-N-(daunorubicin)]-p-xylene hydrochloride] | 4.83 ± 2.5 | – | – | – | – | 0.5 | 2.5 ± 3.4 | less potent than DOX | 1.58±0.08 | – | binding entropy ΔS (herring sperm DNA [7]): -51 cal mol^-1 K^-1; binding free energy ΔG^0 (herring sperm DNA [7]): -15.3 kcal/mol; entropic contribution TΔS (herring sperm DNA [7]): -14.9 kcal/mol; enthalpy of melting of DNA-WP631 complex ΔH2 (herring sperm DNA [7]; DSC, BPE buffer, saturating amounts of WP631): 11.4 ± 1.0 kcal/mol; binding enthalpy ΔHb (herring sperm DNA [7]; hydrochloride): -30.2 ± 2.6 kcal/mol and -30.2 kcal/mol; Tm of herring sperm DNA in presence of drug (herring sperm DNA [8]; 10 μM WP631, BPE buffer (16 mM total Na+), DNA alone 67.2° C.): 93.5 °C; Kd (herring sperm DNA [8]; at 20° C., ΔHb assumed constant with temperature, read-out: binding constant at 20° C. (van't Hoff) (converted)): 0.0037 nM; Kd (herring sperm DNA [8]; at 93.5° C., assuming n=6 bp, read-out: binding constant K at Tm (converted)): 114 nM; expected binding constant (square of monomer constant) (herring sperm DNA [8]; expected for bisintercalator, not measured): 10^14 M^-1; DNA affinity compared with polyamides, in words (herring sperm DNA [8]; vs pyrrole-imidazole polyamides (Trauger, 1996)): surpasses that of the polyamides; cytotoxicity in MCF-7/VP-16 cells compared with DOX, in words (MCF-7/VP-16 cells [5]): dramatic increase in cytotoxicity; binding mode from viscosity (DNA [9]; hydrochloride): binds to DNA by bisintercalation; also recorded: nearly double that observed for daunorubicin
CN(C)CCN1C(=O)c2cccc3cc(N)cc(c23)C1=O [amonafide] | – | – | – | – | – | – | – | – | – | – | inhibition of topoisomerase II (topoisomerase II): inhibit topoisomerase II
CC[n+]1c(-c2ccccc2)c2cc(N)ccc2c2ccc(N)cc21 [ethidium bromide, Ethidium bromide] | – | – | – | – | – | – | – | – | 0.84±0.02 | viscosity changes in excellent agreement with the theory | –
COc1cccc2c1C(=O)c1c(O)c3c(c(O)c1C2=O)C[C@@](O)(C(C)=O)C[C@@H]3O[C@H]1C[C@H](N)[C@H](O)[C@H](C)O1 [daunorubicin] | – | – | triplet sequences 5'-A/TCG and 5'-A/TGC are preferred binding sites | – | – | – | – | – | 0.89±0.04 | viscosity changes in excellent agreement with the theory | Kd (herring sperm DNA [10]; BPE buffer, at 20° C., read-out: binding constant of daunorubicin (converted)): 0.1 µM and 0.0625 µM; binding enthalpy ΔH (herring sperm DNA [10]; comparable ionic conditions): -10.8 kcal/mol; binding entropy ΔS (herring sperm DNA [10]; comparable ionic conditions): -3 cal mol^-1 K^-1; binding free energy ΔG^0 (herring sperm DNA [10]; comparable ionic conditions): -9.9 kcal/mol

— patent publication US5874412A, “Bis-anthracyclines with high activity against doxorubicin resistant tumors” (priority 1997, dated 1999)
